From patent US9562031B1, “Phenethyldihydrobenzodioxolones and methods of use” (Sequoia Sciences, Inc., priority 2015, dated 2017)
Where two headings read alike, the source gives them in different places.

Key:
[1] = tested on: M14 (amelanotic melanoma) cells; assay: antiproliferation assay (72 h, CELLTITER 96), M14; type: cell-based, human
In short: (§1)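 Human M14 melanoma and NCI-H460 lung carcinoma cells in RPMI-1640/10% FBS, seeded at 5×10^2–5×10^4 cells/well and adhered overnight, then exposed to seven compound concentrations for 72 h at 37 °C. Viable cells read by CellTiter 96 AQueous (MTS); IC50 = concentration giving 50% of maximal growth inhibition.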

[2] = tested on: NCI-H460 (large cell lung carcinoma) cells; assay: antiproliferation assay (72 h, CELLTITER 96), NCI-H460; type: cell-based, human; conditions: read-out: NCI-H460 IC50
In short: as §1

[3] = Homo sapiens, NCI-H460, Table 7
[4] = Homo sapiens, NCI-H460, Table 3
[5] = Homo sapiens, NCI-H460, Table 4
[6] = Homo sapiens, NCI-H460, Table 5

Compound: C=CC[C@H]1C[C@]2([C@H](C)Cc3cc(F)c(OC)cc3F)O[C@H](C)OC2=CC1=O [Compound 89, (2R,6S,7aR)-6-allyl-7a-((R)-1-(2,5-difluoro-4-methoxyphenyl)propan-2-yl)-2-methyl-7,7a-dihydrobenzo[d][1,3]dioxol-5(6H)-one]
- IC50 ([1]; Homo sapiens, Table 8): > 20 µM
- IC50 ([2]; Homo sapiens, NCI-H460, Table 8): 6.9 µM

Compound: COc1ccc(C[C@H](C)[C@]23C[C@H](CC=C(C)C)C(=O)C=C2OCO3)cc1OC [Compound 90]
- IC50 ([1]; Homo sapiens, Table 7): 7 µM
- IC50 [2, 3]: 8 µM

Compound: C=CC[C@H]1C[C@]2([C@@H](C)Cc3cc(-c4ccccc4)c(OC)cc3F)OCOC2=CC1=O [Compound 91, (6S,7aR)-6-allyl-7a-((S)-1-(4-fluoro-6-methoxy-[1,1′-biphenyl]-3-yl)propan-2-yl)-7,7a-dihydrobenzo[d][1,3]dioxol-5(6H)-one]
- IC50 ([1]; Homo sapiens, Table 3): > 20 µM
- IC50 [2, 4]: > 20 µM

Compound: C=CC[C@H]1C[C@]2(C(C)Cc3cc(C(=O)O)c(OC)cc3F)OCOC2=CC1=O (stereo partly drawn) [Compound 92, 5-(2-((3aR,5S)-5-allyl-6-oxo-3a,4,5,6-tetrahydrobenzo[d][1,3]dioxol-3a-yl)propyl)-4-fluoro-2-methoxybenzoic acid]
- IC50 ([1]; Homo sapiens, Table 3): > 20 µM
- IC50 [2, 4]: > 20 µM

Compound: C=CC[C@H]1C[C@]2([C@H](C)Cc3cc(C(=O)N(C)C)c(OC)cc3F)OCOC2=CC1=O [Compound 93, 5-((R)-2-((3aR,5S)-5-allyl-6-oxo-3a,4,5,6-tetrahydrobenzo[d][1,3]dioxol-3a-yl)propyl)-4-fluoro-2-methoxy-N,N-dimethylbenzamide]
- IC50 ([1]; Homo sapiens, Table 3): > 20 µM
- IC50 [2, 4]: > 20 µM

Compound: C=CC[C@H]1C[C@]2([C@@H](C)Cc3cc(C(=O)N(C)C)c(OC)cc3F)OCOC2=CC1=O [Compound 94, 5-((S)-2-((3aR,5S)-5-allyl-6-oxo-3a,4,5,6-tetrahydrobenzo[d][1,3]dioxol-3a-yl)propyl)-4-fluoro-2-methoxy-N,N-dimethylbenzamide]
- IC50 ([1]; Homo sapiens, Table 3): > 20 µM
- IC50 [2, 4]: > 20 µM

Compound: C=CC[C@H]1C[C@]2([C@@H](C)Cc3cc(-c4nnn[nH]4)c(OC)cc3F)OCOC2=CC1=O [Compound 95, (6S,7aR)-6-allyl-7a-((S)-1-(2-fluoro-4-methoxy-5-(1H-tetrazol-5-yl)phenyl)propan-2-yl)-7,7a-dihydrobenzo[d][1,3]dioxol-5(6H)-one]
- IC50 ([1]; Homo sapiens, Table 3): > 20 µM
- IC50 [2, 4]: > 20 µM

Compound: C=CCC1C[C@]2([C@@H](C)Cc3ccc(OC)c(C(C)=O)c3)OCOC2=CC1=O (stereo partly drawn) [Compound 96, (7aR)-7a-((S)-1-(3-acetyl-4-methoxyphenyl)propan-2-yl)-6-allyl-7,7a-dihydrobenzo[d][1,3]dioxol-5(6H)-one]
- IC50 ([1]; Homo sapiens, Table 4): > 20 µM
- IC50 [2, 5]: > 20 µM

Compound: C=CC[C@H]1C[C@]2([C@H](C)Cc3ccc(OC)c(N(C)C)c3)OCOC2=CC1=O [Compound 97, (6S,7aR)-6-allyl-7a-((R)-1-(3-(dimethylamino)-4-methoxyphenyl)propan-2-yl)-7,7a-dihydrobenzo[d][1,3]dioxol-5(6H)-one]
- IC50 ([1]; Homo sapiens, Table 4): > 20 µM
- IC50 [2, 5]: > 20 µM

Compound: C=CC[C@H]1C[C@]2([C@@H](C)Cc3ccc(O)cc3)OCOC2=CC1=O [Compound 99, (6S,7aR)-6-allyl-7a-((S)-1-(4-hydroxyphenyl)propan-2-yl)-7,7a-dihydrobenzo[d][1,3]dioxol-5(6H)-one]
- IC50 ([1]; Homo sapiens, Table 5): > 20 µM
- IC50 [2, 6]: > 20 µM

Compound: C=CC[C@H]1C[C@]2([C@@H](C)Cc3ccc(OC(C)=O)cc3)OCOC2=CC1=O [Compound 100, 4-((S)-2-((3aR,5S)-5-allyl-6-oxo-3a,4,5,6-tetrahydrobenzo[d]dioxol-3a-yl)propyl)phenyl acetate]
- IC50 ([1]; Homo sapiens, Table 5): > 20 µM
- IC50 [2, 6]: > 20 µM

Compound: C=CC[C@H]1C[C@]2([C@H](C)Cc3ccc(OCCOC)c(F)c3)OCOC2=CC1=O [Compound 101, (6S,7aR)-6-allyl-7a-((R)-1-(3-fluoro-4-(2-methoxyethoxy)phenyl)propan-2-yl)-7,7a-dihydrobenzo[d][1,3]dioxol-5(6H)-one]
- IC50 ([1]; Homo sapiens, Table 5): > 20 µM
- IC50 [2, 6]: > 20 µM

Compound: C=CC[C@H]1C[C@]2([C@@H](C)Cc3ccc(NC(C)=O)c(F)c3)OCOC2=CC1=O [Compound 102, N-(4-((S)-2-((3aR,55)-5-allyl-6-oxo-3a,4,5,6-tetrahydrobenzo[d][1,3]dioxol-3a-yl)propyl)-2-fluorophenyl)acetamide]
- IC50 ([1]; Table 5): > 20 µM
- IC50 ([2]; Table 5): > 20 µM

Compound: C=CC[C@H]1C[C@]2([C@@H](C)Cc3ccc(N(C)C(C)=O)cc3)OCOC2=CC1=O [Compound 103, N-(4-((S)-2-((3aR,5S)-5-allyl-6-oxo-3a,4,5,6-tetrahydrobenzo[d][1,3]dioxol-3a-yl)propyl)phenyl)-N-methylacetamide]
- IC50 ([1]; Homo sapiens, Table 5): > 20 µM
- IC50 [2, 6]: > 20 µM

Compound: COc1cc(F)c(C[C@H](C)[C@]23CCC(=O)C=C2OCO3)cc1O [Compound 104, (R)-7a-((S)-1-(2-fluoro-5-hydroxy-4-methoxyphenyl)propan-2-yl)-7,7a-dihydrobenzo[d][1,3]dioxol-5(6H)-one]
- IC50 ([1]; Homo sapiens, Table 7): > 20 µM
- IC50 [2, 3]: > 20 µM

Compound: COc1ccc(CC(C)[C@]23CC(CC(C)=O)C(=O)C=C2OCO3)cc1OC (stereo partly shown) [Compound 106]
- IC50 ([1]; Homo sapiens, Table 7): > 20 µM
- IC50 [2, 3]: > 20 µM

Compound: COc1ccc(CC(C)[C@]23C[C@H](CCCF)C(=O)C=C2OCO3)cc1OC (stereo partly drawn) [Compound 107, (6S,7aR)-7a-(1-(3,4-dimethoxyphenyl)propan-2-yl)-6-(3-fluoropropyl)-7,7a-dihydrobenzo[d][1,3]dioxol-5(6H)-one]
- IC50 ([1]; Homo sapiens, Table 7): > 20 µM
- IC50 [2, 3]: > 20 µM

Compound: COc1cc(F)c(C[C@H](C)[C@]23C[C@H](CC(C)O)C(=O)C=C2OCO3)cc1O (stereo partly drawn) [Compound 109, (6S,7aR)-7a-((S)-1-(2-fluoro-5-hydroxy-4-methoxyphenyl)propan-2-yl)-6-(2-hydroxypropyl)-7,7a-dihydrobenzo[d][1,3]dioxol-5(6H)-one]
- IC50 ([1]; Homo sapiens, Table 7): 0.65 µM
- IC50 [2, 3]: 1.5 µM

Compound: C=C[C@H](C)[C@H]1C[C@]2([C@@H](C)Cc3ccc(OC)cc3F)OCOC2=CC1=O [Compound 110, (6R,7aR)-6-((S)-but-3-en-2-yl)-7a-((S)-1-(2-fluoro-4-methoxyphenyl)propan-2-yl)-7,7a-dihydrobenzo[d][1,3]dioxol-5(6H)-one]
- IC50 ([1]; Homo sapiens, Table 7): 0.29 µM
- IC50 [2, 3]: 0.13 µM

Compound: COc1cc(F)c(C[C@H](C)[C@]23C[C@H](CC(C)=O)C(=O)C=C2OCO3)cc1O [Compound 111, (6R,7aR)-7a-((S)-1-(2-fluoro-5-hydroxy-4-methoxyphenyl)propan-2-yl)-6-(2-oxopropyl)-7,7a-dihydrobenzo[d][1,3]dioxol-5(6H)-one]
- IC50 ([1]; Homo sapiens, Table 7): 7 µM
- IC50 [2, 3]: 15 µM

Compound: C=C[C@@H](C)[C@H]1C[C@]2([C@@H](C)Cc3ccc(OC)cc3F)OCOC2=CC1=O [Compound 112, (6R,7aR)-6-((R)-but-3-en-2-yl)-7a-((S)-1-(2-fluoro-4-methoxyphenyl)propan-2-yl)-7,7a-dihydrobenzo[d][1,3]dioxol-5(6H)-one]
- IC50 ([1]; Homo sapiens, Table 7): 0.044 µM
- IC50 [2, 3]: 0.068 µM

Compound: COc1cc(F)c(C[C@H](C)[C@]23C[C@H](Cc4ccco4)C(=O)C=C2OCO3)cc1O [Compound 113, (6S,7aR)-7a-((S)-1-(2-fluoro-5-hydroxy-4-methoxyphenyl)propan-2-yl)-6-(furan-2-ylmethyl)-7,7a-dihydrobenzo[d][1,3]dioxol-5(6H)-one]
- IC50 ([1]; Homo sapiens, Table 7): 1.6 µM
- IC50 [2, 3]: 2.5 µM

Compound: COc1cc(F)c(C[C@H](C)[C@]23C[C@H](Cc4ccncc4)C(=O)C=C2OCO3)cc1O [Compound 114, (6S,7aR)-7a-((S)-1-(2-fluoro-5-hydroxy-4-methoxyphenyl)propan-2-yl)-6-(pyridin-4-ylmethyl)-7,7a-dihydrobenzo[d][1,3]dioxol-5(6H)-one]
- IC50 ([1]; Homo sapiens, Table 7): 3.5 µM
- IC50 [2, 3]: 2 µM

Compound: CCS[C@H]1C[C@]2([C@@H](C)Cc3ccc(OC)cc3F)OCOC2=CC1=O [Compound 115, (6S,7aR)-6-(ethylthio)-7a-((S)-1-(2-fluoro-4-methoxyphenyl)propan-2-yl)-7,7a-dihydrobenzo[d][1,3]dioxol-5(6H)-one]
- IC50 ([1]; Homo sapiens, Table 7): 11.3 µM
- IC50 [2, 3]: > 20 µM

Compound: C=CC[C@H]1C[C@]2([C@@H](C)Cc3cc(F)c(SC)cc3F)OCOC2=CC1=O [Compound 116, (6S,7aR)-6-allyl-7a-((S)-1-(2,5-difluoro-4-(methylthio)phenyl)propan-2-yl)-7,7a-dihydrobenzo[d][1,3]dioxol-5(6H)-one]
- IC50 ([1]; Homo sapiens, Table 5): 0.12 µM
- IC50 [2, 6]: 0.19 µM

Compound: (6S,7aR)-6-allyl-7a-((S)-1-(2-fluoro-4-methoxy-5-morpholinophenyl)propan-2-yl)-7,7a-dihydrobenzo[d][1,3]dioxol-5(6H)-one [Compound 98]
- IC50 ([1]; Table 4): > 20 µM
- IC50 ([2]; Table 4): > 20 µM
